Assay results as given in patent publication US20050075375A1 (priority 2003, published 2005).

System: monocistronic NK5.1 HCV replicon in Huh7 cells
Experiment: HCV replicon assay, monocistronic replicon cell line
Assay type: cell-based, hepatitis C virus
Settings: Hepatitis C virus, Huh-7, 72 h; Table 1; monocistronic replicon in Huh7 cells, 3 days incubation, HCV RNA/GAPDH RNA by TaqMan RT-PCR; read-out: Mono EC50 Median
Source text: HCV Replicon Assays (Replicon EC50 (μM))
HCV replication can be measured by a replicon assay such as described by Vrolijk et al, J. Virol. Methods 110:201(2003), which is hereby incorporated in its entirety by reference. The method was implemented as follows.
Monocistronic Replicon Cell Line:
Human hepatocyte Huh7 cells containing the monocistronic NK5.1 replicon were obtained from Ralf Bartenschlager at the University of Mainz, Germany. These cells were maintained under hygromycin selection and passaged when 80-90% confluent.
This cell line contains an autonomously replicating RNA element (replicon) incorporating the non-structural HCV elements necessary for replication, and upon which the survival of the replicon in the cell depends. This replicon contains a single internal ribosome entry site (HCV IRES). Inhibition of any of the critical HCV finctions by a compound leads to loss of the replicon as measured by HCV replicon RNA copy number reduction. The amount of HCV RNA present following a standard incubation with a compound is a measure of the anti-HCV activity of the compound. The assay was conducted by preparing sufficient 96-well plates containing these cells, wherein cells are seeded at 6000 cells/well in a 96-well plate, in 200 μl of final media volume. Cells were then incubated for 24 hours at 37 C., 5% CO2, and 95% humidity before compound was added. Six point half-log concentration response assays were conducted to determine potency/EC50 of Formula I compounds to inhibit HCV replicon replication. The final percent DMSO acceptable in this assay system is 0.6%. Compounds were diluted in media in an appropriate format and 5 μl of each drug dilution is added to each well. Cells were then incubated with compounds for 3 days at 37 C., 5% CO2, and 95% humidity. Following the three day incubation period, plates were washed twice with phosphate buffered saline to remove media and cells were lysed with Qiagen extraction buffer. RNA was extracted and isolated with the Qiagen RNAeasy kit according to the manufacturer's protocol (Qiagen). TaqMan One-Step RT-PCR was used in conjunction with an ABI 7700 Sequence Detector (Applied Biosystems) for the quantitation and analysis of HCV replicon RNA copy number. A GAPDH probe was used for internal normalization. The ratio of HCV RNA to cellular GAPDH RNA was determined and compared to the DMSO-only treated control, and the ratio of HCV RNA/GAPDH RNA was used for an EC50 determination and as a measure of specificity for inhibition of the HCV replicon.

**Q.** How did the EC50 turn out when `Cc1cc(-c2c(O)ccc3ccccc23)nn1-c1ccccc1[N+](=O)[O-]` [Compound 1, 1-[5-Methyl-1-(2-nitro-phenyl)-1 H-pyrazol-3-yl]-naphthalen-2-ol] was run?
**A.** > 32 µM

**Q.** For `Cc1cc(-c2ccccc2O)nn1-c1ccccc1[N+](=O)[O-]` [Compound 2, 2-[5-Methyl-1-(2-nitro-phenyl)-1H-pyrazol-3-yl]-phenol], which EC50 is on record?
**A.** > 32 µM

**Q.** `Cc1cc(-c2ccccc2O)n(-c2ccccc2[N+](=O)[O-])n1` [Compound 3, 2-[5-Methyl-2-(2-nitro-phenyl)-2H-pyrazol-3-yl]-phenol] was tested. Which EC50 did it give?
**A.** 31 µM

**Q.** For `Cc1cc(-c2c(O)ccc3ccccc23)nn1-c1ccccc1` [Compound 4, 1-(5-Methyl-1-phenyl-1H-pyrazol-3-yl)-naphthalen-2-ol], which EC50 is on record?
**A.** > 19 µM

**Q.** Which EC50 does the source give for `Cc1cc(-c2c(O)ccc3ccccc23)nn1-c1ccccc1C(F)(F)F` [Compound 5, 1-[5-Methyl-1-(2-trifluoromethyl-phenyl)-1H-pyrazol-3-yl]-naphthalen-2-ol] here?
**A.** > 19 µM

**Q.** `Cc1cc(-c2c(O)ccc3ccccc23)n(-c2ccccc2C(F)(F)F)n1` [Compound 6, 1-[5-Methyl-2-(2-trifluoromethyl-phenyl)-2H-pyrazol-3-yl]-naphthalen-2-ol] was tested. Which EC50 did it give?
**A.** 13 µM

**Q.** Which EC50 does the source give for `Cc1cc(-c2ccccc2O)nn1-c1ccccc1C(F)(F)F` [Compound 7, 2-[5-Methyl-i-(2-trifluoromethyl-phenyl)-1H-pyrazol-3-yl]-phenol] here?
**A.** 20 µM

**Q.** With `COc1ccc(-n2nc(-c3c(O)ccc4ccccc34)cc2C)cc1` [Compound 8] as the compound, how does the EC50 read?
**A.** > 19 µM

**Q.** Which EC50 does the source give for `Cc1cc(-c2ccc3ccccc3c2O)n(-c2ccccn2)n1` [Compound 9, 2-(5-Methyl-2-pyridin-2-yl-2H-pyrazol-3-yl)-naphthalen-1-ol] here?
**A.** > 19 µM

**Q.** For `Cc1cc(-c2cc(C)c(C)cc2O)n(-c2ccccc2C)n1` [Compound 10, 4,5-Dimethyl-2-(5-methyl-2-o-tolyl-2H-pyrazol-3-yl)-phenol], which EC50 is on record?
**A.** > 19 µM

**Q.** For `Cc1cc(-c2ccccc2O)nn1-c1ccccc1` [Compound 11, 2-(5-Methyl-1-phenyl-1H-pyrazol-3-yl)-phenol], which EC50 is on record?
**A.** 9 µM

**Q.** Which EC50 does the source give for `Cc1cc(-c2ccc3ccccc3c2O)nn1-c1ccccc1[N+](=O)[O-]` [Compound 12, 2-[5-Methyl-1-(2-nitro-phenyl)-1H-pyrazol-3-yl]-naphthalen-1-ol] here?
**A.** 13 µM

**Q.** With `Cc1cc(-c2c(O)ccc3ccccc23)nn1-c1ccc(C(C)C)cc1` [Compound 13, 1-[1-(4-Isopropyl-phenyl)-5-methyl-1H-pyrazol-3-yl]-naphthalen-2-ol] as the compound, how does the EC50 read?
**A.** > 19 µM

**Q.** `COc1ccc(-n2nc(-c3ccccc3O)cc2C)cc1` [Compound 14, 2-[1-(4-Methoxy-phenyl)-5-methyl-1H-pyrazol-3-yl]-phenol] was tested. Which EC50 did it give?
**A.** 11 µM

**Q.** `Cc1cc(O)c(-c2cc(C)n(-c3ccccc3F)n2)cc1C` [Compound 15, 2-[1-(2-Fluoro-phenyl)-5-methyl-1H-pyrazol-3-yl]-4,5-dimethyl-phenol] was tested. Which EC50 did it give?
**A.** > 19 µM

**Q.** How did the EC50 turn out when `Cc1cc(-c2ccc3ccccc3c2O)nn1-c1ccccc1C(F)(F)F` [Compound 16, 2-[5-Methyl-1-(2-trifluoromethyl-phenyl)-1H-pyrazol-3-yl]-naphthalen-1-ol] was run?
**A.** 17 µM

**Q.** `Cc1cc(O)c(-c2cc(C)n(-c3ccccc3)n2)cc1C` [Compound 17, 4,5-Dimethyl-2-(5-methyl-1-phenyl-1H-pyrazol-3-yl)-phenol] was tested. Which EC50 did it give?
**A.** > 19 µM

**Q.** How did the EC50 turn out when `Cc1cc(-c2c(O)ccc3ccccc23)nn1-c1ccc(Cl)cc1` [Compound 18, 1-[1-(4-Chloro-phenyl)-5-methyl-1H-pyrazol-3-yl]-naphthalen-2-ol] was run?
**A.** 18 µM

**Q.** For `Cc1cc(-c2ccc3ccccc3c2O)n(-c2ccc(Cl)cc2)n1` [Compound 19, 2-[2-(4-Chloro-phenyl)-5-methyl-2H-pyrazol-3-yl]-naphthalen-1-ol], which EC50 is on record?
**A.** 17 µM

**Q.** `Cc1cc(-c2c(O)ccc3ccccc23)nn1-c1ncc(C(F)(F)F)cc1Cl` [Compound 20, 1-[1-(3-Chloro-5-trifluoromethyl-pyridin-2-yl)-5-methyl-1H-pyrazol-3-yl]-naphthalen-2-ol] was tested. Which EC50 did it give?
**A.** 13 µM

**Q.** For `Cc1cc(O)c(-c2cc(C)n(-c3ccc(Cl)cc3)n2)cc1C` [Compound 22, 2-[1-(4-Chloro-phenyl)-5-methyl-1H-pyrazol-3-yl]-4,5-dimethyl-phenol], which EC50 is on record?
**A.** > 19 µM

**Q.** For `Cc1cc(O)c(-c2cc(C)n(-c3nc4ccccc4s3)n2)cc1C` [Compound 23, 2-(l-Benzothiazol-2-yl-5-methyl-1H-pyrazol-3-yl)-4,5-dimethyl-phenol], which EC50 is on record?
**A.** > 19 µM

**Q.** For `Cc1cc(O)c(-c2cc(C)n(-c3ccccc3C(F)(F)F)n2)cc1C` [Compound 24, 4,5-Dimethyl-2-[5-methyl-i-(2-trifluoromethyl-phenyl)-1H-pyrazol-3-yl]-phenol], which EC50 is on record?
**A.** > 19 µM

**Q.** `Cc1cc(-c2c(O)ccc3ccccc23)nn1-c1ncccc1[N+](=O)[O-]` [Compound 25, 1-[5-Methyl-1-(3-nitro-pyridin-2-yl)-1H-pyrazol-3-yl]-naphthalen-2-ol] was tested. Which EC50 did it give?
**A.** > 19 µM

**Q.** With `Cc1cc(-c2c(O)ccc3ccccc23)nn1-c1ncccc1C(F)(F)F` [Compound 26, 1-[5-Methyl-1-(3-trifluoromethyl-pyridin-2-yl)-1H-pyrazol-3-yl]-naphthalen-2-ol] as the compound, how does the EC50 read?
**A.** > 19 µM

**Q.** Which EC50 does the source give for `Cc1cc(C(F)(F)F)cc(-n2nc(-c3c(O)ccc4ccccc34)cc2C)n1` [Compound 27, 1-[5-Methyl-i-(6-methyl-4-trifluoromethyl-pyridin-2-yl)-1 H-pyrazol-3-yl]-naphthalen-2-ol] here?
**A.** 12 µM

**Q.** Which EC50 does the source give for `Cc1cc(-c2c(O)ccc3ccccc23)nn1-c1ccccn1` [Compound 28, 1-(5-Methyl-1-pyridin-2-yl-1H-pyrazol-3-yl)-naphthalen-2-ol] here?
**A.** > 19 µM

**Q.** With `Cc1cc(-c2ccc3ccccc3c2O)nn1-c1ccc(C(C)C)cc1` [Compound 29, 2-[1-(4-Isopropyl-phenyl)-5-methyl-1H-pyrazol-3-yl]-naphthalen-1-ol] as the compound, how does the EC50 read?
**A.** > 19 µM

**Q.** `Cc1cc(O)c(-c2cc(C)n(-c3ccc(C(C)C)cc3)n2)cc1C` [Compound 30, 2-[1-(4-Isopropyl-phenyl)-5-methyl-1H-pyrazol-3-yl]-4,5-dimethyl-phenol] was tested. Which EC50 did it give?
**A.** 12 µM

**Q.** With `COc1ccccc1-c1ccn(-c2ccccc2[N+](=O)[O-])n1` [Compound 31, 3-(2-Methoxy-phenyl)-1-(2-nitro-phenyl)-1H-pyrazole] as the compound, how does the EC50 read?
**A.** 21 µM

**Q.** `COc1ccccc1-c1ccnn1-c1ccccc1[N+](=O)[O-]` [Compound 32, 5-(2-Methoxy-phenyl)-1-(2-nitro-phenyl)-1H-pyrazole] was tested. Which EC50 did it give?
**A.** 3.6 µM

**Q.** How did the EC50 turn out when `Oc1ccccc1-c1ccnn1-c1ccccc1F` [Compound 35, 2-[2-(2-Fluoro-phenyl)-2H-pyrazol-3-yl]-phenol] was run?
**A.** 14 µM

**Q.** With `COc1ccccc1-c1ccn(-c2ncccc2[N+](=O)[O-])n1` [Compound 36, 2-[3-(2-Methoxy-phenyl)-pyrazol-1-yl]-3-nitro-pyridine] as the compound, how does the EC50 read?
**A.** 2.3 µM

**Q.** Which EC50 does the source give for `COc1ccccc1-c1ccnn1-c1ncccc1[N+](=O)[O-]` [Compound 37, 2-[5-(2-Methoxy-phenyl)-pyrazol-1-yl]-3-nitro-pyridine] here?
**A.** > 32 µM

**Q.** Which EC50 does the source give for `COc1ccccc1-c1ccn(-c2ncccc2C(F)(F)F)n1` [Compound 38, 2-[3-(2-Methoxy-phenyl)-pyrazol-1-yl]-3-trifluoromethyl-pyridine] here?
**A.** 13 µM

**Q.** Which EC50 does the source give for `COc1ccccc1-c1ccn(-c2ccccn2)n1` [Compound 39, 2-[3-(2-Methoxy-phenyl)-pyrazol-1-yl]-pyridine] here?
**A.** > 32 µM

**Q.** Which EC50 does the source give for `COc1ccccc1-c1ccnn1-c1ccccn1` [Compound 40, 2-[5-(2-Methoxy-phenyl)-pyrazol-1-yl]-pyridine] here?
**A.** > 32 µM

**Q.** For `O=[N+]([O-])c1cccnc1-n1ccc(-c2ccccc2O)n1` [Compound 41, 2-[1-(3-Nitro-pyridin-2-yl)-1H-pyrazol-3-yl]-phenol], which EC50 is on record?
**A.** 6 µM

**Q.** With `Oc1ccccc1-c1ccn(-c2ncccc2C(F)(F)F)n1` [Compound 42, 2-[1-(3-Trifluoromethyl-pyridin-2-yl)-1H-pyrazol-3-yl]-phenol] as the compound, how does the EC50 read?
**A.** 6 µM

**Q.** `Oc1ccccc1-c1ccn(-c2ccccn2)n1` [Compound 43, 2-(1-Pyridin-2-yl-1H-pyrazol-3-yl)-phenol] was tested. Which EC50 did it give?
**A.** 15 µM

**Q.** With `Oc1ccccc1-c1ccnn1-c1ccccn1` [Compound 44, 2-(2-Pyridin-2-yl-2H-pyrazol-3-yl)-phenol] as the compound, how does the EC50 read?
**A.** > 32 µM

**Q.** Which EC50 does the source give for `COc1ccc(-c2ccn(-c3ncccc3[N+](=O)[O-])n2)c(F)c1` [Compound 45, 2-[3-(2-Fluoro-4-methoxy-phenyl)-pyrazol-1-yl]-3-nitro-pyridine] here?
**A.** 5.8 µM

**Q.** For `COc1ccc(-c2ccnn2-c2ncccc2[N+](=O)[O-])c(F)c1` [Compound 46, 2-[5-(2-Fluoro-4-methoxy-phenyl)-pyrazol-1-yl]-3-nitro-pyridine], which EC50 is on record?
**A.** 6 µM
